Test results reported in patent US6960611B2, “Sulfonyl-containing 2,3-diarylindole compounds, methods for making same, and methods of use thereof” (Institute of Materia Medica, priority 2002, dated 2005).

Experiments:
[1] = test system: carrageenan-induced foot pad edema; assay: Rat carrageenan-induced foot pad edema assay; assay type: in vivo; settings: 10 mg/kg oral
Experimental: Male Sprgue-Dawley rats (190-220 g ) were fasted with free access to water at least 16 h prior experiments. The rats were dosed orally with a 1 ml suspension of test compound in vehicle (0.5% methyl cellulose and 0.025% Tween-20) or with vehicle alone. One hour later a subplantar injection of 0.1 ml of 1% solution of carageenan in 0.9% strile saline was administered to the right hind foot pad. Paw volume was measured with a displacement plethysmometer 2, 3, and 4 h after carrageenan injection.

COX-2 = target: T1, COX-2 (Mus musculus, UniProt Q05769); assay: COX-2 assay: PGE2 release (RIA) from LPS-stimulated mouse peritoneal macrophages; assay type: cell-based, mice; settings: LPS 1 mg/L 9 h, PGE2 by RIA
T1 construct: endogenous in cells; host or cells: thioglycollate-elicited peritoneal macrophages of male C57BL-6J mice, stimulated with LPS
T1 sequence (Q05769 18-604): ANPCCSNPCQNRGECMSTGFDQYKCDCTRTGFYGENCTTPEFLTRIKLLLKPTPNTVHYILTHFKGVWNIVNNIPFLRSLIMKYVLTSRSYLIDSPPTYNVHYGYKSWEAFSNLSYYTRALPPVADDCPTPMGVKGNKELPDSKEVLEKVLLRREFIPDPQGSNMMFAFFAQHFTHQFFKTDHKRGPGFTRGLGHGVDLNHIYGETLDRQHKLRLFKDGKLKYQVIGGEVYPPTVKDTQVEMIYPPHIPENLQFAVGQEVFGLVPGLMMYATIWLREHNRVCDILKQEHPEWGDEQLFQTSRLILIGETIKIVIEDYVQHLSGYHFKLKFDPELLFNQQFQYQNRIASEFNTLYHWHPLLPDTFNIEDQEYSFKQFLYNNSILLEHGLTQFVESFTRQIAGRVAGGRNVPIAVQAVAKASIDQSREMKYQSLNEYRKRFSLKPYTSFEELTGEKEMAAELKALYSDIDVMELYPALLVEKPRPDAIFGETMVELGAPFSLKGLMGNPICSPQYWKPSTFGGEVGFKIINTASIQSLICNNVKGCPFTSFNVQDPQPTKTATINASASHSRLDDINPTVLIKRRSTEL
Experimental: Cell culture: Adherent macrophages were harvested from the peritoneal cells of male mice (C57BL-6J, Level 2, from Experiment Animal Center, Academy of Military Medical Science) 3 d after the injection (ip) of brewer thioglycollate medium (5 mL/100 g body weight). […] Cell viability was examined by trypan blue dye exclusion. All incubation procedures were performed with 5% CO2 in humidified air at 37° C.
COX-2 assay: Macrophages were incubated with test compound at different concentrations or solvent (Me2SO) for 1 h and were stimulated with LPS 1 mg/L for 9 h. The amount of PGE2 in supernatants was measured by RIA. The inhibitory ratio was calculated using the same Formula as in COX-1 assay section. Cs, Ct, Cc refer to PGE2 concentration in supernatants of LPS, test compound, and control groups, respectively.
Statistical analysis: Data were expressed as the mean±SD of more than three independent experiments. Dose-inhibitory effect curves were fit through “uphill dose response curves, variable slope” using Prism, GraphPad (version 3.00): [formula]

| melting point | IC50 (COX-2) | Structure (SMILES) | edema (paw volume increase) ([1]; 2 h after carrageenan) | edema (paw volume increase) ([1]; 3 h after carrageenan) | inhibitory percentage of edema ([1]; 3 h after carrageenan) | edema (paw volume increase) ([1]; 4 h after carrageenan) | inhibitory percentage of edema ([1]; 4 h after carrageenan) | inhibitory percentage of edema ([1]; 2 h after carrageenan) |
| --- | --- | --- | --- | --- | --- | --- | --- | --- |
| 197 to 198 °C | 89.6 pM | Cc1ccc(-c2c(-c3ccc(S(C)(=O)=O)cc3)[nH]c3ccccc23)cc1 [Example 65, 2-(4-methylsulfonylphenyl)-3-(4-methylphenyl)indole] | 18.5 ± 8.1% | 35.8 ± 6.8% | 42.8% | 27.4 ± 7.1% | 47.2% |  |
| 206 to 207 °C | 166 pM | Cc1ccc(-c2c(-c3ccc(S(C)(=O)=O)cc3)[nH]c3ccccc23)cc1C [Example 67, 2-(4-methylsulfonylphenyl)-3-(3,4-dimethylphenyl)indole] | 25.6 ± 13.4% | 43.9 ± 11% | 29.8% | 29.5 ± 12% | 43.1% |  |
| 218.5 to 220.5 °C | 22 pM | COc1ccc(-c2c(-c3ccc(S(C)(=O)=O)cc3)[nH]c3ccccc23)cc1 [Example 69, 2-(4-methylsulfonylphenyl)-3-(4-methoxyphenyl)indole] | 21.6 ± 12.4% | 43.4 ± 12.1% | 30.6% | 37.8 ± 10.7% | 27.1% |  |
| 228 to 230 °C | 5150 pM | NS(=O)(=O)c1ccc(-c2[nH]c3ccccc3c2-c2ccc(F)cc2)cc1 [Example 72, 2-(4-aminosulfonylphenyl)-3-(4-Fluorophenyl)indole] | 32.8 ± 13.2% | 36.4 ± 16.9% | 40.5% | 35.4 ± 11.3% | 41.2% |  |
| 297 to 299 °C | 143 pM | NS(=O)(=O)c1ccc(-c2[nH]c3ccc(Cl)cc3c2-c2ccccc2)cc1 [Example 75, 2-(4-aminosulfonylphenyl)-3-phenyl-5-chloroindole] | 35.6 ± 25.5% | 44.1 ± 31.4% | 54.8% | 34 ± 13.6% | 57.8% | 50.1% |
| 243 to 245 °C | 5000 pM | CS(=O)(=O)c1ccc(-c2[nH]c3ccc(F)cc3c2-c2ccccc2)cc1 [Example 79, 2-(4-methylsulfonylphenyl)-3-phenyl-5-fluoroindole] | 41.8 ± 7.2% | 47.7 ± 15.8% | 51.5% | 31.6 ± 13.3% | 60.8% | 41.4% |
| 302 to 304 °C | 2000 pM | NS(=O)(=O)c1ccc(-c2[nH]c3ccc(F)cc3c2-c2ccccc2)cc1 [Example 80, 2-(4-aminosulfonylphenyl)-3-phenyl-5-fluoroindole] | 36.7 ± 7.4% | 46.6 ± 14% | 52.2% | 40.8 ± 17.6% | 49.4% | 48.6% |
| 242 to 244 °C | 17.1 pM | Cc1ccc2[nH]c(-c3ccc(S(N)(=O)=O)cc3)c(-c3ccccc3)c2c1 [Example 84, 2-(4-aminosulfonylphenyl)-3-phenyl-5-methylindole] | 63.1 ± 18.1% | 65.6 ± 15.4% | 32.8% | 62.4 ± 15.7% | 22.6% | 40.5% |
| 273 to 275 °C | 270 pM | CS(=O)(=O)c1ccc(-c2c(-c3ccccc3)[nH]c3ccc(Cl)cc23)cc1 [Example 87, 2-phenyl-3-(4-methylsulfonylphenyl)-5-chloroindole] | 45.4 ± 9.7% | 46.9 ± 13.6% | 23.4% | 43.4 ± 13.4% | 27.9% |  |
